The subject of one assay is RS4-11. As to the kind of experiment: cells. The following applies: Homo sapiens, RS4-11, 48 h.
Assay [1] concerns the target T1, Induced myeloid leukemia cell differentiation protein Mcl-1 (Homo sapiens, UniProt Q07820). As to the kind of experiment: Binding affinity to full length human MCL1 expressed in Escherichia coli BL21 (DE3) assessed as inhibition constant preincubated for 30 mins followed by 5-FAM-QEDIIIINIARHLAQVGDSMD-RSIPPG tracer addition and measured after 20 mins by fluorescence polarization assay. (In general: In fluorescence polarisation assays a small probe gives low polarisation when free and higher when bound to something large.)

The next assay concerns HEK-293T. The experiment in a line: Cytotoxicity against HEK293T cells assessed as reduction in cell viability incubated for 48 hrs by CCK8 assay. The note with it: Homo sapiens.
The subject of another assay is HeLa. As to the kind of experiment: cells. The following applies: Homo sapiens, 48 h.
In assay [2] the target is Apoptosis regulator Bcl-2 (Homo sapiens, UniProt P10415). The experiment in a line: Binding affinity to full length human Bcl-2 expressed in Escherichia coli BL21 (DE3) at up to 100 uM preincubated for 30 mins followed by 5-FAM-QEDIIIINIARHLAQVGDSMD-RSIPPG tracer addition and measured after 20 mins by fluorescence polarization assay. The note with it: dose microM <=100, time 50.0 min.
Sequence of Apoptosis regulator Bcl-2 (P10415 whole entry): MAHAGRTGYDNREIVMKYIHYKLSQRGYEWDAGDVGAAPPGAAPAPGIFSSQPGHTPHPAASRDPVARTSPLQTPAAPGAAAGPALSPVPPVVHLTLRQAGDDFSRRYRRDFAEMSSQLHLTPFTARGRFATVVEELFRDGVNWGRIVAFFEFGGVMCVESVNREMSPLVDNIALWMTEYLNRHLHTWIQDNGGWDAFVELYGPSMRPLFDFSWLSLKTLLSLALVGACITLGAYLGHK

The target in the next assay is Bcl-2-like protein 1 (Homo sapiens, UniProt Q07817). As to the kind of experiment: Binding affinity to full length human Bcl-xl expressed in Escherichia coli BL21 (DE3) at up to 100 uM preincubated for 30 mins followed by 5-FAM-QEDIIIINIARHLAQVGDSMD-RSIPPG tracer addition and measured after 20 mins by fluorescence polarization assay. The following applies: dose microM <=100, time 50.0 min.
Sequence of Bcl-2-like protein 1 (Q07817 whole entry): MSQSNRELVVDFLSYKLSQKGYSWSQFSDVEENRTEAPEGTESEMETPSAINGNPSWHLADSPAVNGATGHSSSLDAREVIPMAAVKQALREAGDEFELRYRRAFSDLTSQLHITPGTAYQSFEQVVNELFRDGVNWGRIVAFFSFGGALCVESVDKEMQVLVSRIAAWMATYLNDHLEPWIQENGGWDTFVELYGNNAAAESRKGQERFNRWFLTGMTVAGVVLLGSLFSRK

Another assay relates to HL-60. As to the kind of experiment: cells. The note with it: Homo sapiens, HL-60, 48 h.
Assay [3] has as its target T1, Induced myeloid leukemia cell differentiation protein Mcl-1. The experiment in a line: Binding affinity to full length human MCL1 expressed in Escherichia coli BL21 (DE3) at up to 100 uM preincubated for 30 mins followed by 5-FAM-QEDIIIINIARHLAQVGDSMD-RSIPPG tracer addition and measured after 20 mins by fluorescence polarization assay. The following applies: dose microM <=100, time 50.0 min.

Activity calls are given as the source filed them. Where only a bound is given, the exact number is not on record here.

For orientation: IC50 means the concentration needed to halve the response being measured. In general, Ki refers to a dissociation constant, usually derived from enzyme kinetics or from competition with a known ligand.

T1 sequence (Q07820 whole entry): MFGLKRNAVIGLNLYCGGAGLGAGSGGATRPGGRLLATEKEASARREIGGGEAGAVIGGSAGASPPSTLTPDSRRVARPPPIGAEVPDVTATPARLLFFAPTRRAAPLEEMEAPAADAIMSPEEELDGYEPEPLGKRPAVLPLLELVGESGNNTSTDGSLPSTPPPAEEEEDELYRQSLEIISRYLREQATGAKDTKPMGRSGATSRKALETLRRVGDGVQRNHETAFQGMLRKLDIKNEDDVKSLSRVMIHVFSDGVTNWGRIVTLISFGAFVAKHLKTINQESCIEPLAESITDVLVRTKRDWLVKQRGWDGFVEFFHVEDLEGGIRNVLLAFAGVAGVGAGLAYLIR
Description for HL-60: Cytotoxicity against human HL-60 cells assessed as inhibition of cell growth incubated for 48 hrs by CCK8 assay
Description for HeLa: Cytotoxicity against human HeLa cells assessed as inhibition of cell growth incubated for 48 hrs by CCK8 assay
Description for RS4-11: Cytotoxicity against human RS4-11 cells assessed as inhibition of cell growth incubated for 48 hrs by CCK8 assay

`Cc1ccc(-c2ccsc2S(=O)(=O)NCCNC(=S)Nc2cc(C(F)(F)F)cc(C(F)(F)F)c2)c(Oc2ccc(O)c(O)c2)c1`: the IC50 in the assay with RS4-11 is 4.8 µM; in the assay on HEK-293T it was 8 µM; in the assay on HeLa, 8 µM; in the assay on HL-60, 3.2 µM. Further, the Ki in assay [1] stood at 0.73 µM. In addition, the outcome (in assay [2]; at Bcl-2-like protein 1) was inactive.

Consider `Cc1ccc(-c2ccsc2S(=O)(=O)NCCNC(=S)Nc2ccc([N+](=O)[O-])cc2)c(Oc2ccc(O)c(O)c2)c1`, for which the IC50 with RS4-11 stood at 5.1 µM; in the assay on HEK-293T, 8.2 µM; in the assay with HeLa, 6.8 µM; with HL-60 it was 2.9 µM. In addition, the inhibition constant (Ki) in assay [1] came out at 1.5 µM. The result (in assay [2]; on Bcl-2-like protein 1) was inactive.

As for `COc1ccc(NC(=O)NCCNS(=O)(=O)c2ccc(-c3ccccc3Oc3ccc([N+](=O)[O-])cc3)s2)cc1`, the half-inhibitory concentration (IC50) is greater than 50 µM in the assay on RS4-11, greater than 20 µM in the assay on HEK-293T, greater than 20 µM with HeLa and greater than 50 µM in the assay on HL-60. Also, the Ki in assay [1] came to 4.6 µM. Further, the result (in assay [2]; at Bcl-2-like protein 1) was inactive.

For `COc1cccc(NC(=S)NCCNS(=O)(=O)c2ccc(-c3ccccc3Oc3ccc([N+](=O)[O-])cc3)s2)c1`, the IC50 with RS4-11 is greater than 50 µM; in the assay on HEK-293T, greater than 20 µM; in the assay with HeLa, greater than 50 µM; with HL-60, greater than 50 µM. The Ki in assay [1] came out at 13 µM. The outcome (in assay [2]; on Bcl-2-like protein 1) was inactive.

Consider `Cc1ccc(-c2ccsc2S(=O)(=O)NCCNC(=O)Nc2cccc([N+](=O)[O-])c2)c(Oc2ccc(O)c(O)c2)c1`, for which the IC50 is 9.1 µM with RS4-11, 6.8 µM in the assay with HEK-293T, greater than 20 µM in the assay with HeLa and 6 µM in the assay on HL-60. Also, the inhibition constant Ki in assay [1] was 13 µM. In addition, the outcome (in assay [2]; at Bcl-2-like protein 1) was inactive.

Take `COc1cccc(NC(=S)NCCNS(=O)(=O)c2sccc2-c2ccc(C)cc2Oc2ccc(O)c(O)c2)c1`: the IC50 in the assay on RS4-11 was greater than 20 µM; with HEK-293T it was greater than 50 µM; in the assay on HeLa, greater than 50 µM; with HL-60, greater than 50 µM. In assay [1], the Ki was determined as 6 µM. Also, the outcome (in assay [2]; on Bcl-2-like protein 1) was inactive.

Consider `O=S(=O)(NCCNC(=S)Nc1ccc(Cl)cc1)c1ccc(-c2ccccc2OCc2ccccc2)s1`, for which the IC50 with RS4-11 was greater than 50 µM; in the assay with HEK-293T, 12.1 µM; in the assay on HeLa, 7 µM; with HL-60 it was greater than 50 µM. In addition, in assay [1], the Ki was 4.3 µM. Further, the result (in assay [2]; at Bcl-2-like protein 1) was inactive.

In the case of `O=C(NCCNS(=O)(=O)c1ccc(-c2ccccc2OCc2ccccc2)s1)Nc1cc(C(F)(F)F)cc(C(F)(F)F)c1`, the IC50 with RS4-11 is greater than 50 µM; in the assay with HEK-293T it was greater than 20 µM; in the assay on HeLa, 13.5 µM; in the assay on HL-60, 11.4 µM. For the same compound, the outcome (in assay [2]; at Bcl-2-like protein 1; in assay [3]) was inactive.

`O=S(=O)(NCCNC(=S)Nc1cc(C(F)(F)F)cc(C(F)(F)F)c1)c1ccc(-c2ccccc2O[C@H]2CC[C@@H](O)CC2)s1`: the half-inhibitory concentration (IC50) with RS4-11 is 6.3 µM; in the assay on HEK-293T, greater than 20 µM; in the assay with HeLa, 10.9 µM; in the assay with HL-60, 2.6 µM. The result (in assay [2]; at Bcl-2-like protein 1; in assay [3]) was inactive.

As to `COc1ccc(Oc2ccc(C(C)C)cc2-c2ccsc2S(=O)(=O)NCCNC(=S)Nc2ccc([N+](=O)[O-])cc2)cc1OC`, the concentration for half-maximal inhibition (IC50) in the assay with RS4-11 stood at 5.8 µM; in the assay with HEK-293T, 11.4 µM; in the assay on HeLa, 11.9 µM; in the assay with HL-60, 11.2 µM. Further, the result (in assay [2]; on Bcl-2-like protein 1; in assay [3]) was inactive.

Turning to `O=C(NCCNS(=O)(=O)c1ccc(-c2ccccc2Oc2ccc([N+](=O)[O-])c([N+](=O)[O-])c2)s1)Nc1cc(Cl)cc(Cl)c1`, the IC50 in the assay on RS4-11 was 2.1 µM; in the assay with HEK-293T it was greater than 20 µM; with HeLa it was greater than 20 µM; in the assay on HL-60, 2.3 µM. For the same compound, the outcome (in assay [2]; on Bcl-2-like protein 1; in assay [3]) was inactive.

Consider `COc1ccc(Oc2ccc(C(C)C)cc2-c2ccsc2S(=O)(=O)NCCNC(=O)Nc2cc(Cl)cc(Cl)c2)cc1OC`, for which the IC50 in the assay with RS4-11 was determined as 9 µM; with HEK-293T, 11.9 µM; in the assay with HeLa it was 11.6 µM; in the assay on HL-60 it was 6.5 µM. In addition, the result (in assay [2]; on Bcl-2-like protein 1; in assay [3]) was inactive.

Take `O=[N+]([O-])c1ccc(Oc2ccccc2-c2ccc(S(=O)(=O)NCCNC(=S)Nc3cccc(Cl)c3)s2)cc1`: the IC50 is greater than 50 µM in the assay on RS4-11, 4.99 µM in the assay on HEK-293T, 4.6 µM with HeLa and greater than 50 µM in the assay on HL-60. Also, the result (in assay [2]; at Bcl-2-like protein 1; in assay [3]) was inactive.

Consider `O=[N+]([O-])c1cccc(NC(=S)NCCNS(=O)(=O)c2ccc(-c3ccccc3OCc3cccc(O)c3)s2)c1`, for which the half-inhibitory concentration (IC50) in the assay on RS4-11 worked out at 9.8 µM; in the assay on HEK-293T, 13.8 µM; in the assay on HeLa, 11.1 µM; in the assay with HL-60, 11.4 µM. The outcome (in assay [2]; on Bcl-2-like protein 1; in assay [3]) was inactive.

As to `Cc1cc(C)cc(NC(=O)NCCNS(=O)(=O)c2ccc(-c3ccccc3OCc3ccccc3)s2)c1`, the IC50 was greater than 50 µM in the assay on RS4-11, greater than 20 µM in the assay with HEK-293T, greater than 50 µM with HeLa and 2.2 µM in the assay on HL-60. Moreover, the outcome (in assay [2]; on Bcl-2-like protein 1; in assay [3]) was inactive.

`COc1cccc(NC(=O)NCCNS(=O)(=O)c2sccc2-c2ccc(C)cc2Oc2ccc(O)c(O)c2)c1`: the IC50 in the assay on RS4-11 was 7.5 µM; in the assay on HEK-293T, greater than 20 µM; in the assay with HeLa, greater than 20 µM; with HL-60, 3.6 µM. Further, the outcome (in assay [2]; at Bcl-2-like protein 1; in assay [3]) was inactive.

`O=C(NCCNS(=O)(=O)c1ccc(-c2ccccc2Oc2ccc([N+](=O)[O-])c([N+](=O)[O-])c2)s1)Nc1cc(C(F)(F)F)cc(C(F)(F)F)c1`: the IC50 was 2.4 µM in the assay on RS4-11, greater than 50 µM in the assay on HEK-293T, greater than 50 µM with HeLa and 1.9 µM in the assay on HL-60. Besides, the outcome (in assay [2]; at Bcl-2-like protein 1; in assay [3]) was inactive.

`Cc1cc(C)cc(NC(=O)NCCNS(=O)(=O)c2ccc(-c3ccccc3Oc3ccc([N+](=O)[O-])c([N+](=O)[O-])c3)s2)c1`: the IC50 with RS4-11 is 3.6 µM; in the assay with HEK-293T it was greater than 50 µM; with HeLa it was 12 µM; with HL-60, 9.1 µM. Also, the result (in assay [2]; on Bcl-2-like protein 1; in assay [3]) was inactive.

Take `O=C(NCCNS(=O)(=O)c1ccc(-c2ccccc2O[C@H]2CC[C@@H](O)CC2)s1)Nc1cc(C(F)(F)F)cc(C(F)(F)F)c1`: the IC50 in the assay on RS4-11 is 9.3 µM; with HEK-293T, 14.1 µM; in the assay on HeLa it was 14.1 µM; with HL-60 it was 3.1 µM. The result (in assay [2]; on Bcl-2-like protein 1; in assay [3]) was inactive.

As for `O=C(NCCNS(=O)(=O)c1ccc(-c2ccccc2O[C@H]2CC[C@H](O)CC2)s1)Nc1ccc([N+](=O)[O-])cc1`, the IC50 with RS4-11 turned out to be 4.1 µM; in the assay on HEK-293T, 9 µM; in the assay with HeLa, 10.5 µM; in the assay on HL-60, 8.9 µM. In addition, the outcome (in assay [2]; on Bcl-2-like protein 1; in assay [3]) was inactive.

As for `O=S(=O)(NCCNC(=S)Nc1cccc(Cl)c1)c1ccc(-c2ccccc2OCc2cccc(O)c2)s1`, the IC50 in the assay with RS4-11 was 5.8 µM; with HEK-293T it was 17.4 µM; in the assay with HeLa, 10.7 µM; in the assay on HL-60 it was 1.8 µM. Also, the outcome (in assay [2]; at Bcl-2-like protein 1; in assay [3]) was inactive.

On to `O=[N+]([O-])c1ccc(Oc2ccccc2-c2ccc(S(=O)(=O)NCCNC(=S)Nc3cc(C(F)(F)F)cc(C(F)(F)F)c3)s2)cc1`, for which the IC50 turned out to be 6.3 µM in the assay on RS4-11, 6 µM with HEK-293T, 9.9 µM in the assay on HeLa and 7.2 µM in the assay on HL-60. Besides, the result (in assay [2]; at Bcl-2-like protein 1; in assay [3]) was inactive.

(Values after ChEMBL document CHEMBL5034015, “Structure-Based Optimization of 3-Phenyl-N-(2-(3-phenylureido)ethyl)thiophene-2-sulfonamide Derivatives as Selective Mcl-1 Inhibitors” (J Med Chem, 2021).)
